Experimental data: patent US12583911B2, “Human immunodeficiency virus GP120 binding proteins” (ViiV Healthcare UK (No.5) Limited, priority 2022, dated 2026)

Assays:
[1] = Melting temperature (Tm) of soluble CD4 domains, Prometheus System; type: physicochemical; conditions: soluble CD4 domain with C-terminal 6xHis tag
Protocol: The best performing variants (SEQ ID NOs: 5-21) were fused with 6×His tag at their C-termini, expressed and purified from mammalian cells using methods as described in Example 1, except that purification was via a Ni-NTA resin (Cytiva, Marlborough MA) instead of Mabselect SuRe column, with standard protocol from the vendor.
These purified CD4 D1 variants (with C-terminal 6xHis tag) were then evaluated to determine their melting temperature (Tm, using Prometheus System, NanoTemper, München Germany), which indicates thermal stability, as well as their anti-viral activity against HIV-1 pseudotyped virus (see Example 2 above for methods using ACTOne cells).

[2] = test system: panel of HIV-1 envelopes (pseudotyped HIV-1 virus); test: PSV assay (ACTOne cells), HIV-1 envelopes; type: cell-based
Protocol: (§1) The anti-viral activity of the antigen binding proteins was measured in a pseudotyped virus (PSV) assay.
(§2) PSV was produced in HEK-293T cells (ATCC, Manassas VA) by co-transfecting expression plasmids encoding the HIV-1 gp160 envelope gene and an HIV-1 backbone plasmid using TRANSIT-2020 transfection reagent (Mirus Bio, Madison WI). A panel of HIV-1 PSVs expressing different gp160 envelope trimers was generated to evaluate the effectiveness of the antigen binding proteins of the invention against a wide spectrum of HIV-1 strains.
(§3) The genome of PSV used in this assay contains a luciferase gene that is expressed once the virus enters cells. Accordingly, the luminescence signal (after adding a substrate of luciferase) can be used to determine the level of viral infection.
(§4) The 50% tissue culture infectious dose (TCID) of a single thawed aliquot of each batch of PSV was determined in ACTOne cells. The ACTOne cell-line used in this assay was derived in-house from a genetically engineered 293T cell clone that expresses CD4, CXCR4, and CCR5. Cells were maintained in growth medium composed of Dulbecco's modified Eagle's medium (DMEM, Life Technologies) at 37° C. in a humidified 5% CO2-95% air environment. Cell monolayers were split by treatment with Trypsin-EDTA (0.05%).
(§5) To run the anti-viral assay, ACTOne cells were detached by treating the cell culture flask with trypsin (trypsinization) and resuspended in growth medium containing 2% of DMSO to a density of 2.5×10^5 cells/ml. One hundred μl of such cells was added to 10 μl of antigen binding protein pre-loaded in a 96-well plate. Ninety μl of PSV was then added to each well. The assay plates were incubated at 37° C. in a humidified incubator at 5% CO2 level. Plates were developed after 72 hours of incubation by adding 50 μl of BRIGHTGLO luciferase reagent (Promega, Madison WI) to each well, and transferring the plates to an ENVISION multilabel plate reader (PerkinElmer, Waltham MA) to measure the luminescence and determine the level of virus that had infected the cells. The higher the luminescence signal, the higher the level of infection.

[3] = test system: HIV NL4-3 virus; test: In vitro resistance barrier (viral breakthrough in MT2 cells); type: cell-based, HIV-1; conditions: HIV NL4-3 in MT2 cells
Protocol: To assess the resistance barrier of the bispecific molecules, we examined the relative rates at which HIV NL4-3 virus can escape inhibition by a panel of antibodies versus a DMSO control.
MT2 cells (2.0×10^5/well in RPMI 1640+[…] penicillin and streptomycin+10 mM HEPES buffer pH 7.55+2 mM L-glutamine. +0.2% DMSO) were pre-infected at an MOI (multiplicity of infection) of 0.005 for 2.5 hours and then pelleted to remove unbound virus particles. One mL of infected cells was added to each well of a 24 well plate.
Every 3-4 days images of the wells were captured and 1 ml of each well is removed and replaced by fresh preparations of each condition. This process was continued until there was viral breakthrough (observed cytopathic effect (CPE)>80%) or until there was a confirmed elimination of infected cells (via challenged elimination). When either condition was achieved, the sample was collected as pellet and supernatant (via centrifugation) and stored at −80° C. until genotypic analysis was performed to confirm the presence of resistance mutations. The days from infection to breakthrough were used to estimate the resistance barrier of a certain molecule. The longer it takes the virus to develop CPE, which indicates resistance, the higher the resistance barrier is.

[4] = test system: NL4-3 (NLRepRluc replicating reporter virus); test: Replicating virus assay using NLRepRluc virus (NL4-3) in MT-2 cells; type: cell-based, HIV-1; conditions: NL4-3, replicating virus assay
Text: All clinical and laboratory isolates were originally obtained from the NIH AIDS Reagent Program (currently NIH HIV Reagent Program, https:hivreagentprogram.org/). The proviral clone of NL4-3 (obtained from NIH) was used to make the replicating reporter virus NLRepRluc, in which a section of the nef gene from the proviral clone of NL4-3 was replaced with the Renilla luciferase gene. Virus was produced through transfection of HEK293T cells using Lipofectamine Plus (Invitrogen, Carlsbad, CA), according to the manufacturer's instructions. […]
The NLRepRluc was used to infect MT-2 cells at a multiplicity of 0.01 for 1 hour before adding the proteins to the 96-well plates. […] After 4 days of incubation, cells were processed and quantitated for virus growth by the amount of expressed luciferase. Luciferase was quantitated using the ENDUREN substrate from Promega (Madison, WI) according to the manufacturer's instructions. Luciferase activity was measured immediately on an ENVISION multilabel plate reader (PerkinElmer, Waltham MA). EC50 values were calculated by comparing the amount of luciferase produced in the presence of antigen binding protein compared to wells where no antigen binding protein (DMSO control) was added. […]

[5] = test system: HIV-2 Env-pseudotypes (HIV-2-AID, HIV-2-ATM88, HIV-2-HCC-01); test: PSV assay (ACTOne cells), HIV-2 envelopes; type: cell-based; conditions: PSV assay
Protocol: as §1, §2, §3, §4, §5
HIV-2 differs from HIV-1 in that it originates from the transmission of simian immunodeficiency virus (SIV) from sooty mangabeys (SIVsmm) to human (Gao et al, J Virol. 1994; 68 (11): 7433-7447) whilst HIV-1 stems from the transmission from chimpanzees and western gorillas (HIV-1 group M and O, respectively). HIV-2 can also cause AIDS but is far less pathogenic and wide-spread than HIV-1 (de Silva et al, Trends Microbiol. 2008; 16 (12): 588-595; Da Silva et al, AIDS. 2008; 22 (10): 1195-1202). Though also using CD4 for infection (Sattentau et al, AIDS. 1988; 2 (2): 101-105), HIV-2 shares only 40% identity in the gp160 amino acid sequence with HIV-1, and is therefore less sensitive or insensitive to HIV-1 envelope-directed bnAbs (Kong et al, JVI 2012; 86 (2): 947-960).

[6] = envelope CAP45.2.00.G3, PSV assay
[7] = envelope X1632_S2_B10, PSV assay

## D1m-K8I: soluble CD4 D1 variant of mD1.22 with K8I, SEQ ID NO:10, 6xHis tagged [Molecule D1m-K8I]
[1]
  Tm (° C.): 75.9 °C

## D1m-K8V: soluble CD4 D1 variant of mD1.22 with K8V, SEQ ID NO:5, 6xHis tagged [Molecule D1m-K8V]
[1]
  Tm (° C.): 77.1 °C

## D1m-K21C-G65C: soluble CD4 D1 variant of mD1.22 with K21C and G65C, SEQ ID NO:15, 6xHis tagged
[1]
  Tm (° C.): 80.1 °C

## D1m-N52W: soluble CD4 D1 variant of mD1.22 with N52W, SEQ ID NO:9, 6xHis tagged [Molecule D1m-N52W]
[1]
  Tm (° C.): 72 °C

## D1m-T11C-K72C: soluble CD4 D1 variant of mD1.22 with T11C and K72C, SEQ ID NO:12, 6xHis tagged
[1]
  Tm (° C.): 79.9 °C

## D1mD2_His: soluble CD4 D1D2 variant mD1.22-D2 (SEQ ID NO:2) plus C-terminal 6xHis tag [Molecule D1mD2_His, reference compound]
[2]; envelope 42368, PSV assay
  IC50: 7.29 nM
[2]; envelope BJOX2000, PSV assay
  IC50: 33.4 nM
[2]; [6]
  IC50: > 500 nM
[2]; envelope CH119, PSV assay
  IC50: 120 nM
[2]; envelope HXB2, PSV assay
  IC50: 0.07 nM
[2]; envelope LAI, PSV assay
  IC50: 5.41 nM
[2]; envelope NL4-3, PSV assay
  IC50: 0.74 nM
[2]; envelope T278.50, PSV assay
  IC50: 16 nM
[2]; envelope TRO11, PSV assay
  IC50: 17.3 nM
[2]; [7]
  IC50: 14.9 nM

## D1m_His: soluble human CD4 D1 variant mD1.22 (SEQ ID NO:4) plus C-terminal 6xHis tag [Molecule D1m_His, reference compound]
[1]
  Tm (° C.): 68.2 °C
[3]; group 20x EC50
  Average days before CPE: 4 days
[3]; group 30x EC50
  Average days before CPE: 5 days
[3]; group 40x EC50
  Average days before CPE: 7 days
[4]
  EC50: 0.23 nM
[5]; envelope HIV-2-AID, ACTOne cells
  IC50: 104 nM
[5]; envelope HIV-2-ATM88
  IC50: 3.93 nM
[5]; envelope HIV-2-HCC-01
  IC50: > 500 nM
[2]; envelope 42368, PSV assay
  IC50: 4.32 nM
[2]; envelope BJOX2000, PSV assay
  IC50: 70.9 nM
[2]; [6]
  IC50: 131 nM
[2]; envelope CC1/85, PSV assay
  IC50: 7.02 nM
[2]; envelope CH119, PSV assay
  IC50: 90.7 nM
[2]; envelope LAI, PSV assay
  IC50: 8.79 nM
[2]; envelope T278.50, PSV assay
  IC50: 3.99 nM
[2]; envelope TRO11, PSV assay
  IC50: 68.4 nM
[2]; [7]
  IC50: 16.2 nM
[2]; envelope ZM106.9, PSV assay
  IC50: 26 nM
